Source: patent US8569267B2, “Tetracyclic tetrahydrofuran derivatives containing cyclic amine side chain” (Janssen Pharmaceutica, NV, priority 2005, dated 2013)

Key:
[1] = biological target: T1, human cloned 5-HT2C receptor, expressed in CHO cells (Homo sapiens, UniProt P28335); assay: In vitro binding affinity for 5-HT2C receptor ([3H]mesulergine radioligand binding); conditions: human cloned 5-HT2C receptor; for IC50: read-out: 5-HT2C pIC50 (converted)
T1 construct: expressed in transfected cells; host or cells: CHO cells
T1 sequence (P28335 33-458): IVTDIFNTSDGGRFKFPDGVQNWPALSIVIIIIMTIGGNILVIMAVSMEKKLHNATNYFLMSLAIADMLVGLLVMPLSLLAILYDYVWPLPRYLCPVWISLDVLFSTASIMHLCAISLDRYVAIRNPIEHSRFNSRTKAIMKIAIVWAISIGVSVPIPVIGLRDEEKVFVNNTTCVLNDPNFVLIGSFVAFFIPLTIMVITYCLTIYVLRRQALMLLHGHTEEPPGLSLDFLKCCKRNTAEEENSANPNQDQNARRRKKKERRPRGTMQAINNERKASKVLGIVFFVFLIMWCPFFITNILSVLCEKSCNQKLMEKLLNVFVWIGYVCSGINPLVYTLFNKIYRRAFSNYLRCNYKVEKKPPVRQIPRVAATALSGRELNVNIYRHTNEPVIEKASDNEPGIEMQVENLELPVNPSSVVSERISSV
Summary of the method: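 Receptor-bound radioligand counted after separation from unbound label once equilibrium is reached. Test compound added across a concentration range to tissue preparation plus radioligand; inhibition of binding reflects affinity and concentration.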

[2] = biological target: T2, NET (norepinephrine transporter) (Rattus norvegicus, UniProt Q63380); assay: In vitro determination of NET reuptake inhibition ([3H]Nixosetine binding, rat brain cortex); conditions: rat brain cortex; for IC50: read-out: NET pIC50 (converted)
T2 construct: Cortex from rat brain was collected and homogenised; from tissue; host or cells: rat brain cortex
T2 sequence (Q63380 1-617): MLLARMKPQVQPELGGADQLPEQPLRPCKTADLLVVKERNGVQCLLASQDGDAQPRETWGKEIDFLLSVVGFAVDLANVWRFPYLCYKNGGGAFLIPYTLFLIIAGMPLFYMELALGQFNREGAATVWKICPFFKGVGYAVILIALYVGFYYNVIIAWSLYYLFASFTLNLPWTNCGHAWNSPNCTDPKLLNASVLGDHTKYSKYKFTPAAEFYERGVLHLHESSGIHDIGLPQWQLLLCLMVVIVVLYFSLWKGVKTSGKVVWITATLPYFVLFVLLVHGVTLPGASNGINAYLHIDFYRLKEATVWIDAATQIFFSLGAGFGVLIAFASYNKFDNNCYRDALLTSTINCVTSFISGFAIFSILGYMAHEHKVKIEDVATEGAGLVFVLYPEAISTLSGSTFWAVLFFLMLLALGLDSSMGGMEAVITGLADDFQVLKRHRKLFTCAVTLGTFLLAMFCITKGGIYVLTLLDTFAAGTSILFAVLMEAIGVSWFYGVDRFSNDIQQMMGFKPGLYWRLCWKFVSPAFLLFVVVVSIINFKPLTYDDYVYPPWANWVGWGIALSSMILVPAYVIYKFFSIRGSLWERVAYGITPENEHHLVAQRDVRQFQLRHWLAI
Summary of the method: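 Competition curves and percentage specific binding came from scintillation counting of filter-trapped radioactivity. The membranes were rat cortical homogenate in pH 7.4 Tris buffer with 120 mM NaCl and 5 mM KCl. Test compounds competed with [3H]nisoxetine for binding.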

[3] = biological target: T3, human Dopamine D2L receptor (Homo sapiens, UniProt P14416); assay: In vitro binding affinity for human D2L receptor ([3H]Spiperone binding); conditions: human D2L receptor-transfected CHO cell membranes; for IC50: read-out: D2L pIC50 (converted)
T3 construct: expressed in transfected cells; host or cells: CHO cells
T3 sequence (P14416 whole entry): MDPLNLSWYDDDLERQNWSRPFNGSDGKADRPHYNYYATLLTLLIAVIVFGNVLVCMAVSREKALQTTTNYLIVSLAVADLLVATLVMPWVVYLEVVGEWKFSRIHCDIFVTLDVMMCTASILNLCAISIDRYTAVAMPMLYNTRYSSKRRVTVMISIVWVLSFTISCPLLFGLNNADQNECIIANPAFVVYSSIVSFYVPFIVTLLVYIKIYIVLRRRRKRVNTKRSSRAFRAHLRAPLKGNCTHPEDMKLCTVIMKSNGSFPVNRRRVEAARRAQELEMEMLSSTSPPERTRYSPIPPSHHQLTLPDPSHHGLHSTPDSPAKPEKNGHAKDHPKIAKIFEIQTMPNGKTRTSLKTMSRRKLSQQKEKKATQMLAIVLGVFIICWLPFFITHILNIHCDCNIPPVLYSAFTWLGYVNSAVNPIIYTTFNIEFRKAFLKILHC
Summary of the method: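 Competition curves were expressed as percent specific binding, measured by scintillation counting after filtration onto GF/B filters and ice-cold Tris washes. Test compounds competed with [3H]Spiperone, added from a 2 nmol/L dilution, for 30 min at 37° C on transfected CHO membranes in pH 7.7 Tris-HCl salt buffer. Butaclamol at 10^−6 mol/l final marked non-specific binding.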

[4] = biological target: T4, human cloned 5-HT2A receptor, expressed in L929 cells (Homo sapiens, UniProt P28223); assay: In vitro binding affinity for 5-HT2A receptor ([125I]R91150 radioligand binding); conditions: human cloned 5-HT2A receptor in L929 cells, [125I]R91150; for IC50: read-out: 5-HT2A pIC50 (converted)
T4 construct: expressed in transfected cells; host or cells: L929 cells
T4 sequence (P28223 whole entry): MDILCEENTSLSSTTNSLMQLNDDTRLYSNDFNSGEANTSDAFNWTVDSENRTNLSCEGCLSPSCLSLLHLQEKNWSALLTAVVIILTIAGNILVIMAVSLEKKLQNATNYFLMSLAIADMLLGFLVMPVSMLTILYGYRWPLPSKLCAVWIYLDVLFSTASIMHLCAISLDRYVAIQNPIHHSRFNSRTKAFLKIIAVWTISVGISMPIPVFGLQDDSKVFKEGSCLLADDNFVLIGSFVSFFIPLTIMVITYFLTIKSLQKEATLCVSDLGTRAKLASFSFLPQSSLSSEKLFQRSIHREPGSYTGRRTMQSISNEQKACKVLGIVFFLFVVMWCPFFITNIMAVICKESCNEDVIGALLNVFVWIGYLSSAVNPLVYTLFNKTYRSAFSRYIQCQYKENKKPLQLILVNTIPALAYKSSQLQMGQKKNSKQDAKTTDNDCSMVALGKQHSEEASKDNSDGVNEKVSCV
Summary of the method: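 Competition radioligand binding to human cloned 5-HT2A receptor expressed in L929 cells, using [125I]R91150 with test compound at various concentrations. At equilibrium, receptor-bound radioactivity was separated from free and counted. Affinity reflects inhibition of radioligand binding.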

| Compound | IC50 [1] [nM] | IC50 [2] [nM] | IC50 [3] [nM] | IC50 [4] [nM] | 5-HT2C pIC50 [1] | NET pIC50 [2] | D2L pIC50 [3] | 5-HT2A pIC50 [4] |
| --- | --- | --- | --- | --- | --- | --- | --- | --- |
| COc1ccc2c(c1)C1OC(CN3CCC(O)CC3)CC1c1ccccc1O2.O=C(O)C(=O)O (racemic) [Compound 288] | – | – | – | – | 6.71 | <5 | 6.08 | 7.18 |
| O=S(=O)(c1ccccc1)n1cccc1CN1CCN(CC2CC3c4ccccc4Cc4ccc(F)cc4C3O2)CC1 (stereo not drawn) [Compound 68] | 117 | 2400 | 91.2 | 67.6 | – | – | – | – |
| CN(C)CCC1CN(C[C@H]2C[C@@H]3c4ccccc4Cc4ccc(F)cc4[C@@H]3O2)CCO1 (stereo partly drawn) [Compound 132] | 33.1 | 5750 | 389 | 33.1 | – | – | – | – |
| OCCC1CN(C[C@H]2C[C@@H]3c4ccccc4Cc4ccc(F)cc4[C@@H]3O2)CCO1 (stereo partly drawn) [Compound 129] | 7.59 | 417 | 29.5 | < 10 | – | – | – | – |
| O=C(C1CCCO1)N1CCN(CC2CC3c4ccccc4Cc4ccc(F)cc4C3O2)CC1 (mixture of isomers) [Compound 80] | 16.6 | 3720 | 44.7 | 1.07 | – | – | – | – |
| Fc1ccc2c(c1)C1OC(CN3CCN(Cc4ccc(-c5ccc(Cl)cc5)o4)CC3)CC1c1ccccc1C2 (stereo not drawn) [Compound 62] | 107 | 3470 | 75.9 | 47.9 | – | – | – | – |
| COc1ccc2c(c1)C1OC(CN3CCC(O)CC3)CC1c1ccccc1O2.O=C(O)C(=O)O (racemic) [Compound 287] | – | – | – | – | 6.54 | <5 | 6.17 | 7.62 |
| Fc1ccc2c(c1)C1OC(CN3CCN(Cc4cccc5ccccc45)CC3)CC1c1ccccc1C2 (stereo not drawn) [Compound 75] | 97.7 | 1620 | 63.1 | 17.4 | – | – | – | – |
| CC(=Cc1ccccc1)CN1CCN(CC2CC3c4ccccc4Cc4ccc(F)cc4C3O2)CC1 (stereo not drawn) [Compound 49] | 120 | 2570 | 33.1 | 33.9 | – | – | – | – |
| CCC(C)(C)NC(=O)N1CCN(CC2CC3c4ccccc4Cc4ccc(F)cc4C3O2)CC1 (stereo not drawn) [Compound 90] | 20 | 4470 | 30.9 | 1.62 | – | – | – | – |
| CN(CCO)CCC1CN(CC2CC3c4ccccc4Cc4ccc(F)cc4C3O2)CCO1 (mixture of isomers) [Compound 133] | 34.7 | 933 | 355 | 49 | – | – | – | – |
| OC(COCc1ccco1)CN1CCN(CC2CC3c4ccccc4Cc4ccc(F)cc4C3O2)CC1 (mixture of isomers) [Compound 55] | 3.16 | 1820 | 8.13 | 2.69 | – | – | – | – |
| COCCC1CN(C[C@H]2C[C@@H]3c4ccccc4Cc4ccc(F)cc4[C@@H]3O2)CCO1 (stereo partly drawn) [Compound 130] | 5.37 | 3550 | 21.9 | < 10 | – | – | – | – |
| COc1ccc(OCC2CCN(C[C@H]3C[C@@H]4c5ccccc5Cc5ccc(F)cc5[C@@H]4O3)C2)cc1 (stereo partly drawn) [Compound 25] | 4.68 | 2190 | 6.03 | 1.58 | – | – | – | – |
| CCOC(=O)CNC(=O)N1CCN(CC2CC3c4ccccc4Cc4ccc(F)cc4C3O2)CC1 (stereo not drawn) [Compound 92] | 15.5 | > 10000 | 43.7 | 2.57 | – | – | – | – |
| Fc1ccc2c(c1)[C@@H]1O[C@@H](CN3CCC4(CC3)OCCO4)C[C@@H]1c1ccccc1C2 [Compound 278] | 9.77 | > 10000 | 2.29 | 1.62 | – | – | – | – |
| OCC1CCCN(C[C@H]2C[C@@H]3c4ccccc4Cc4ccc(F)cc4[C@@H]3O2)C1 (stereo partly drawn) [Compound 147, [2R-(2α, 3aα, 12bβ)]-(3′RS)-[1-(11-fluoro-3,3a,8,12b-tetrahydro-2H-1-oxa-dibenzo[e,h]azulen-2-ylmethyl)-piperidin-3-yl]-methanol.oxalate (1:1)] | 1.26 | > 10000 | 4.79 | 1.1 | – | – | – | – |
| Fc1ccc2c(c1)C1OC(CN3CCN(Cc4cccs4)CC3)CC1c1ccccc1C2 (stereo not drawn) [Compound 58] | 25.7 | 977 | 7.41 | 11 | – | – | – | – |

Further lines, with some results ahead:

| IC50 [1] [nM] | IC50 [2] [nM] | IC50 [3] [nM] | IC50 [4] [nM] | Compound | 5-HT2C pIC50 [1] | NET pIC50 [2] | D2L pIC50 [3] | 5-HT2A pIC50 [4] |
| --- | --- | --- | --- | --- | --- | --- | --- | --- |
| 15.5 | 5130 | 224 | 13.5 | COCC1CCCN1CC1CC2c3ccccc3Cc3ccc(F)cc3C2O1 (mixture of isomers) [Compound 38] | – | – | – | – |
| 4.07 | 2880 | 3.98 | 1.2 | CCOC(=O)CNC(=O)NC1CCN(CC2CC3c4ccccc4Cc4ccc(F)cc4C3O2)CC1 (stereo not drawn) [Compound 242] | – | – | – | – |
| 2.75 | > 10000 | 47.9 | < 10 | O=C(Nc1ccc(F)c(Cl)c1)C1CCN(CC2CC3c4ccccc4Cc4ccc(F)cc4C3O2)CC1 (stereo not drawn) [Compound 190] | – | – | – | – |
| 10.5 | 3470 | 66.1 | 3.16 | O=C(C1CCN(CC2CC3c4ccccc4Cc4ccc(F)cc4C3O2)CC1)N1CCN(CC=Cc2ccccc2)CC1 (stereo not drawn) [Compound 204] | – | – | – | – |
| 12.6 | 5750 | 6.03 | 2.95 | O=C(NC1CCN(CC2CC3c4ccccc4Cc4ccc(F)cc4C3O2)CC1)c1ccc(Cl)cc1Cl (stereo not drawn) [Compound 230] | – | – | – | – |
| 3.24 | 4070 | 13.5 | 9.77 | COc1cccc(OC2CCN(CC3CC4c5ccccc5Cc5ccc(F)cc5C4O3)C2)c1 (mixture of isomers) [Compound 31] | – | – | – | – |
| 7.59 | > 10000 | 57.5 | 4.79 | O=C(NCCN1CCOCC1)C1CCN(CC2CC3c4ccccc4Cc4ccc(F)cc4C3O2)CC1 (stereo not drawn) [Compound 181] | – | – | – | – |
| 3.31 | 1230 | 3.89 | 4.17 | O=C(OC1CCN(CC2CC3c4ccccc4Cc4ccc(F)cc4C3O2)C1)C1CCCC1 (mixture of isomers) [Compound 14] | – | – | – | – |
| 4.27 | 5010 | 3.89 | 8.71 | Fc1cccc(OCC2CCN(CC3CC4c5ccccc5Cc5ccc(F)cc5C4O3)C2)c1 (stereo not drawn) [Compound 27] | – | – | – | – |
| 0.427 | 6170 | 10 | 7.24 | Fc1ccc2c(c1)C1OC(CN3CCC(Oc4ccccc4F)C3)CC1c1ccccc1C2 (mixture of isomers) [Compound 34] | – | – | – | – |
| 3.09 | 4470 | 16.6 | 3.63 | COc1ccccc1N1CCN(C(=O)C2CCN(CC3CC4c5ccccc5Cc5ccc(F)cc5C4O3)CC2)CC1 (stereo not drawn) [Compound 203] | – | – | – | – |
| 33.1 | > 10000 | 355 | 23.4 | CCOC(=O)C1CCCCN1CC1CC2c3ccccc3Cc3ccc(F)cc3C2O1 (mixture of isomers) [Compound 158] | – | – | – | – |
| 12 | 5250 | 31.6 | 4.68 | CC(=O)C1(c2ccccc2)CCN(C(=O)C2CCN(CC3CC4c5ccccc5Cc5ccc(F)cc5C4O3)CC2)CC1 (stereo not drawn) [Compound 209] | – | – | – | – |
| 1.12 | 5010 | 3.47 | 0.912 | O=C(OC1CCN(CC2CC3c4ccccc4Cc4ccc(F)cc4C3O2)C1)C1CC1 (mixture of isomers) [Compound 13] | – | – | – | – |
| 1.15 | > 10000 | 25.7 | < 10 | CSc1ccc(NC(=O)C2CCN(CC3CC4c5ccccc5Cc5ccc(F)cc5C4O3)CC2)cc1 (stereo not drawn) [Compound 183] | – | – | – | – |
| 8.13 | > 10000 | 15.5 | < 10 | O=C(C1CCN(CC2CC3c4ccccc4Cc4ccc(F)cc4C3O2)CC1)N1CCC1 (stereo not drawn) [Compound 200] | – | – | – | – |
| 0.275 | > 10000 | 4.47 | 1.23 | C=CC1(O)CCN(CC2CC3c4ccccc4Cc4ccc(F)cc4C3O2)C1 (stereo not drawn) [Compound 40] | – | – | – | – |
| 2.88 | 1620 | 13.8 | 3.16 | N#CCCC1CCCN(CC2CC3c4ccccc4Cc4ccc(F)cc4C3O2)C1 (mixture of isomers) [Compound 169] | – | – | – | – |
